# Reference: patent US8691865B2 (AbbVie Inc., priority 2008, dated 2014)
# Molecular target: human Cav2.2 (Homo sapiens, UniProt Q00975)
# Assay: Assessment of calcium channel activity using FLIPR (Ca2+ influx in IMR32 cells)
# Type: cell-based
# Conditions: not given
# Outline: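 Human neuroblastoma IMR32 cells were seeded at 1−1.2×10^5 cells/well and cultured 48 h at 37 °C before FLIPR calcium influx measurement. Percent inhibition at each concentration was calculated against the no-inhibitor signal, and IC50 came from sigmoidal dose-response fits.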
# Sequence of human Cav2.2 (Q00975 whole entry): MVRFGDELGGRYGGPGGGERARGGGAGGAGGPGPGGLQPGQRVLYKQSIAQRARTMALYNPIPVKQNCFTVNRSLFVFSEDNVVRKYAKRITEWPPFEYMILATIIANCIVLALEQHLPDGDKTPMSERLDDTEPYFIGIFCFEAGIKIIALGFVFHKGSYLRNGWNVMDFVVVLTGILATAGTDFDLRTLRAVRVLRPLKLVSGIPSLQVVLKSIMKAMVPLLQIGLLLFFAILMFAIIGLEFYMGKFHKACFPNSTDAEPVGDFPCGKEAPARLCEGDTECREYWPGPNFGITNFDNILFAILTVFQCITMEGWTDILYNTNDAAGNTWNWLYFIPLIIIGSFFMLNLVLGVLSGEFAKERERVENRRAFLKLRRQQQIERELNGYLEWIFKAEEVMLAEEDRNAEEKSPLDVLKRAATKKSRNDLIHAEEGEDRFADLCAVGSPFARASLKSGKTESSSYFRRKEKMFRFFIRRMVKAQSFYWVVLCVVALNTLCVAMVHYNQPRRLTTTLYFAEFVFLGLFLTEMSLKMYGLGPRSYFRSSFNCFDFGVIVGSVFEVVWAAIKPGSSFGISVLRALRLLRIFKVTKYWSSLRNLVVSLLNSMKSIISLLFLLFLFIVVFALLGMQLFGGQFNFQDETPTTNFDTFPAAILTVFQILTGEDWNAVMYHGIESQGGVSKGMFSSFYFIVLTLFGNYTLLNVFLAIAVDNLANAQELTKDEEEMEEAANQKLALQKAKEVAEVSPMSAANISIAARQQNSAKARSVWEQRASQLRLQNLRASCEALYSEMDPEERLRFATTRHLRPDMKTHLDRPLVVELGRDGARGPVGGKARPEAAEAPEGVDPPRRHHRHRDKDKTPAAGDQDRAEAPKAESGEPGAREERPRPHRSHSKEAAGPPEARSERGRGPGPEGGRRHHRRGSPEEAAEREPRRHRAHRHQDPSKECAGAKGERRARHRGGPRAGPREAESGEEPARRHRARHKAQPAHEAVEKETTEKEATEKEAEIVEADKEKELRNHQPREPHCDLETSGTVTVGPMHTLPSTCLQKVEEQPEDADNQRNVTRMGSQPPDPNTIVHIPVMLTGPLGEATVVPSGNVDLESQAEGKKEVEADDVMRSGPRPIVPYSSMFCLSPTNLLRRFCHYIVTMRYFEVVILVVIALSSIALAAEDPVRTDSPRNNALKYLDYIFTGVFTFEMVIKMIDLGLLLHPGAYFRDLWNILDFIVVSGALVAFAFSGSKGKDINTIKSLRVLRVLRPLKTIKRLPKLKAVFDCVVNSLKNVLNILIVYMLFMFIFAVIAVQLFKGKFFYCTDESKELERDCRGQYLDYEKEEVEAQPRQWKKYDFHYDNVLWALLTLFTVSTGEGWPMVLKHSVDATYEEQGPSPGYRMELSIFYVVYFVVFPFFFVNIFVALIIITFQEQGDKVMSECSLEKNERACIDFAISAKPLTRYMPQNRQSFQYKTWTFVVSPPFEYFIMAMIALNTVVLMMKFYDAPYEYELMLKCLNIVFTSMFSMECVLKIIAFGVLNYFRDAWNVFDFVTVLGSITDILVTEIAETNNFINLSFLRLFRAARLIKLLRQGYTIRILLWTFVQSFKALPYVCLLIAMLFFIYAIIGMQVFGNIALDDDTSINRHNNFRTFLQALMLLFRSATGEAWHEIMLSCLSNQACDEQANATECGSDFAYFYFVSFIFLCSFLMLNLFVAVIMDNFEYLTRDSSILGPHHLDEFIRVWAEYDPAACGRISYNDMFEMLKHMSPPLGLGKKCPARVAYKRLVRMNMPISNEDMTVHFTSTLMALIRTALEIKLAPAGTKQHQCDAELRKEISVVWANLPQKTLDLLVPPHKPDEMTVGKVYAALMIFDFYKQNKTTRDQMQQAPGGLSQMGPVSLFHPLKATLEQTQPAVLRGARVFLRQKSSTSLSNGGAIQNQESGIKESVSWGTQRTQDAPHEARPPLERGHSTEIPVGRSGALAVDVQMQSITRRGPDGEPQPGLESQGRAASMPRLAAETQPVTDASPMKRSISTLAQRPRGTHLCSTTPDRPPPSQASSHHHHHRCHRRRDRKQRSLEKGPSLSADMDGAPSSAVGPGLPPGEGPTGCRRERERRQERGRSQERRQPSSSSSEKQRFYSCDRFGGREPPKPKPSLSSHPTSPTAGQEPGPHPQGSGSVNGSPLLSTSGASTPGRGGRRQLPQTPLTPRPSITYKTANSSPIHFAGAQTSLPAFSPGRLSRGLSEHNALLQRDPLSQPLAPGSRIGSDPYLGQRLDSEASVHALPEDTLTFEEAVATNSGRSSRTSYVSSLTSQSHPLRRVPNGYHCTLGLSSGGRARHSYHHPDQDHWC
# Sequence of human Cav2.2 (P54289 25-956 partner limits assumed): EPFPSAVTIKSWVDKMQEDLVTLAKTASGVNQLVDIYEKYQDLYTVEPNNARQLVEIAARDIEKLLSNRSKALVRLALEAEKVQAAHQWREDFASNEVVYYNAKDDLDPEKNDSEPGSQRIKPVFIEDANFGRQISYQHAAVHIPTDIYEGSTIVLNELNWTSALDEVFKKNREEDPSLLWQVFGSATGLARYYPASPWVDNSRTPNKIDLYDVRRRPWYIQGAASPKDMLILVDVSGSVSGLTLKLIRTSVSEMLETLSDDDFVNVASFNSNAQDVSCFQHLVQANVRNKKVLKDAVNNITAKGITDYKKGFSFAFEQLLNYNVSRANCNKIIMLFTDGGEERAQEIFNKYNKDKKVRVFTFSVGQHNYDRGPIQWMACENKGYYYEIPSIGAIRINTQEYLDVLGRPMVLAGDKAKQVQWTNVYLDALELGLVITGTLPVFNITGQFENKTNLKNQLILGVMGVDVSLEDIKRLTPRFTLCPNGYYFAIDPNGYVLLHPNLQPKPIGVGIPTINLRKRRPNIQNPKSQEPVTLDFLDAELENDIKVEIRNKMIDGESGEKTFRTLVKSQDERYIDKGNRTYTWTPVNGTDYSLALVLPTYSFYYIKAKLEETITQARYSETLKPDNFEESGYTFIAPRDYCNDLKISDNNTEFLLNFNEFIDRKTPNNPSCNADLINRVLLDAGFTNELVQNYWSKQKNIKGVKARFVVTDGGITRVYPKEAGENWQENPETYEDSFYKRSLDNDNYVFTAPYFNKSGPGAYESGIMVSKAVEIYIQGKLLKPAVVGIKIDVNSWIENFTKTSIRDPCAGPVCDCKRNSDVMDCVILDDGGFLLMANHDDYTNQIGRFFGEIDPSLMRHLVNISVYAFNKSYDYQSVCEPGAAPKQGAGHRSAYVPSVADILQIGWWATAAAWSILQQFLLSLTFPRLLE
# Sequence of human Cav2.2 (P54289 957-1103 partner limits assumed): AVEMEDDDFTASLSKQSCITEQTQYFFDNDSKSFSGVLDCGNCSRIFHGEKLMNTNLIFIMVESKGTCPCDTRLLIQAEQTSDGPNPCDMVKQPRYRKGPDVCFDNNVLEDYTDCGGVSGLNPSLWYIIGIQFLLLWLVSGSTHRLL
# Sequence of human Cav2.2 (P54284 whole entry partner): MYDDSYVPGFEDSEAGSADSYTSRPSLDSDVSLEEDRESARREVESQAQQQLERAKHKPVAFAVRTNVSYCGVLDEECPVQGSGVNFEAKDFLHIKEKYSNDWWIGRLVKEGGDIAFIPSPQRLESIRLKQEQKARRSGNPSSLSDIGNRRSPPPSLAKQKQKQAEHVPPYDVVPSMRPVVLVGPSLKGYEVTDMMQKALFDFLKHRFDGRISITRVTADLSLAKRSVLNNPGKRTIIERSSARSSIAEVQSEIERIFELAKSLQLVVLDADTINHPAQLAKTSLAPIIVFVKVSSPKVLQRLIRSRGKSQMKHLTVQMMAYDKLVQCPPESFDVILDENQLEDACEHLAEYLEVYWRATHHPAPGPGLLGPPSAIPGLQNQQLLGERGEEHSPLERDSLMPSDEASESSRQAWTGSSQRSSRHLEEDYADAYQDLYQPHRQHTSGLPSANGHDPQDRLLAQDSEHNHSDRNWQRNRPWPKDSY
row,Compound,IC50 [µM]
1,"CN[C@H](C(=O)N[C@H]1CC[C@@H]2CN(c3cccc(C(F)(F)F)c3)C[C@@H]21)C(C)C [Example 757, N^2-methyl-N-{(3aR,4S,6aS)-2-[3-(trifluoromethyl)phenyl]octahydrocyclopenta[c]pyrrol-4-yl}-L-valinamide]",1.13
2,CN[C@@H](Cc1ccccc1)C(=O)N[C@H]1CC[C@@H]2CN(S(=O)(=O)c3ccc(C(F)(F)F)cc3Cl)C[C@@H]21 [Example 432],1.66
3,"CN[C@@H](CC(C)C)C(=O)N[C@H]1CC[C@@H]2CN(c3ccccc3OC(F)(F)F)C[C@@H]21 [Example 699, N^2-methyl-N-{(3aR,4S,6aS)-2-[2-(trifluoromethoxy)phenyl]octahydrocyclopenta[c]pyrrol-4-yl}-L-leucinamide]",0.65
4,"O=C(N[C@H]1CC[C@@H]2CN(c3ccc(C(F)(F)F)cn3)C[C@@H]21)[C@@H]1C[C@@H]2CCCC[C@@H]2N1 [Example 603, (2S,3aS,7aS)-N-{(3aR,4S,6aS)-2-[5-(trifluoromethyl)pyridin-2-yl]octahydrocyclopenta[c]pyrrol-4-yl}octahydro-1H-indole-2-carboxamide]",2.22
5,"FC(F)(F)c1cccc(N2C[C@H]3CC[C@H](NCc4c[nH]c5ccc(Cl)cc45)[C@H]3C2)n1 [Example 680, (3aR,4S,6aS)-N-[(5-chloro-1H-indol-3-yl)methyl]-2-[6-(trifluoromethyl)pyridin-2-yl]octahydrocyclopenta[c]pyrrol-4-amine]",1.66
6,"FC(F)(F)c1cccc(N2C[C@H]3CC[C@H](NCc4[nH]c5ccccc5c4Cl)[C@H]3C2)n1 [Example 679, (3aR,4S,6aS)-N-[(3-chloro-1H-indol-2-yl)methyl]-2-[6-(trifluoromethyl)pyridin-2-yl]octahydrocyclopenta[c]pyrrol-4-amine]",1.62
7,"O=C(Nc1ccc(Cl)cc1)N[C@H]1CC[C@@H]2CN(c3cccc(C(F)(F)F)n3)C[C@@H]21 [Example 713, 1-(4-chlorophenyl)-3-{(3aR,4S,6aS)-2-[6-(trifluoromethyl)pyridin-2-yl]octahydrocyclopenta[c]pyrrol-4-yl}urea]",2.99
8,"Cc1n[nH]cc1CN[C@H]1CC[C@@H]2CN(c3cccc(C(F)(F)F)n3)C[C@@H]21 [Example 695, (3aR,4S,6aS)-N-[(3-methyl-1H-pyrazol-4-yl)methyl]-2-[6-(trifluoromethyl)pyridin-2-yl]octahydrocyclopenta[c]pyrrol-4-amine]",2.55
9,"CC(C)COC(=O)N[C@@H](CC(C)C)C(=O)N[C@@H]1CC[C@H]2CN(Cc3cccc(C(F)(F)F)c3)C[C@H]21 [Example 178, isobutyl (S)-4-methyl-1-oxo-1-((3aS,4R,6aR)-2-(3-(trifluoromethyl)benzyl)octahydrocyclopenta[c]pyrrol-4-ylamino)pentan-2-ylcarbamate]",1
10,"O=C(N[C@H]1CC[C@@H]2CN(c3cccc(C(F)(F)F)n3)C[C@@H]21)c1cccc(F)c1 [Example 564, 3-fluoro-N-{(3aR,4S,6aS)-2-[6-(trifluoromethyl)pyridin-2-yl]octahydrocyclopenta[c]pyrrol-4-yl}benzamide]",0.34
11,"O=C(N[C@@H]1CC[C@H]2CN(Cc3ccccc3)C[C@H]21)[C@@H]1CCCCN1 [Example 350, (2S)-N-[(3aS,4R,6aR)-2-benzyloctahydrocyclopenta[c]pyrrol-4-yl]piperidine-2-carboxamide]",> 30
12,"O=C(N[C@H]1CC[C@@H]2CN(c3cccc(C(F)(F)F)n3)C[C@@H]21)c1cc(Cl)c[nH]1 [Example 575, 4-chloro-N-{(3aR,4S,6aS)-2-[6-(trifluoromethyl)pyridin-2-yl]octahydrocyclopenta[c]pyrrol-4-yl}-1H-pyrrole-2-carboxamide]",0.7
13,"CC(C)C(C(=O)N[C@H]1CC[C@@H]2CN(CCCc3ccccc3)C[C@@H]21)c1ccccc1 (stereo partly drawn) [Example 105, 3-methyl-2-phenyl-N-[(3aR,4S,6aS)-2-(3-phenylpropyl)octahydrocyclopenta[c]pyrrol-4-yl]butanamide]",1.21
14,"CC(C)N[C@@H](CC(C)(C)C)C(=O)N[C@H]1CC[C@@H]2CN(C(=O)[C@H](Cc3ccccc3)NC(C)C)C[C@@H]21 [Example 489, N^2-isopropyl-N^1-[(3aR,4S,6aS)-2-(N-isopropyl-L-phenylalanyl)octahydrocyclopenta[c]pyrrol-4-yl]-4-methyl-L-leucinamide]",15.7
15,"O=C(N[C@H]1CC[C@@H]2CN(c3csc(C(F)F)c3)C[C@@H]21)[C@@H]1C[C@@H](F)CN1 [Example 655, (4R)-N-{(3aR,4S,6aS)-2-[5-(difluoromethyl)-3-thienyl]octahydrocyclopenta[c]pyrrol-4-yl}-4-fluoro-L-prolinamide]",19.6
16,"O=S(=O)(N[C@H]1CC[C@@H]2CN(c3cccc(C(F)(F)F)n3)C[C@@H]21)c1cccc(Cl)c1 [Example 704, 3-chloro-N-{(3aR,4S,6aS)-2-[6-(trifluoromethyl)pyridin-2-yl]octahydrocyclopenta[c]pyrrol-4-yl}benzenesulfonamide]",4.63
17,"Cc1ccc(N2C[C@H]3CC[C@H](NC(=O)[C@@H]4C[C@@H](F)CN4)[C@H]3C2)cc1 [Example 652, (4R)-4-fluoro-N-[(3aR,4S,6aS)-2-(4-methylphenyl)octahydrocyclopenta[c]pyrrol-4-yl]-L-prolinamide]",21.2
18,"O=S(=O)(Cc1ccc(Cl)cc1)N[C@H]1CC[C@@H]2CN(c3cccc(C(F)(F)F)n3)C[C@@H]21 [Example 717, 1-(4-chlorophenyl)-N-{(3aR,4S,6aS)-2-[6-(trifluoromethyl)pyridin-2-yl]octahydrocyclopenta[c]pyrrol-4-yl}methanesulfonamide]",3.54
19,"CCC[C@H](N)C(=O)N[C@H]1CC[C@@H]2CN(S(=O)(=O)c3ccc(C(F)(F)F)cc3)C[C@@H]21 [Example 422, N^1-((3aR,4S,6aS)-2-{[4-(trifluoromethyl)phenyl]sulfonyl}octahydrocyclopenta[c]pyrrol-4-yl)-L-norvalinamide]",7.83
20,"CN[C@@H](CC(C)(C)C)C(=O)N[C@H]1CC[C@@H]2CN(S(=O)(=O)c3ccc(C(F)(F)F)cc3)C[C@@H]21 [Example 415, N^2,4-dimethyl-N^1-((3aR,4S,6aS)-2-{[4-(trifluoromethyl)phenyl]sulfonyl}octahydrocyclopenta[c]pyrrol-4-yl)-L-leucinamide]",1.31
21,"CN(C)[C@@H](CC1CC1)C(=O)N[C@H]1CC[C@@H]2CN(c3ccc(OC(F)(F)F)cc3)C[C@@H]21 [Example 777, 3-cyclopropyl-N^2,N^2-dimethyl-N-{(3aR,4S,6aS)-2-[4-(trifluoromethoxy)phenyl]octahydrocyclopenta[c]pyrrol-4-yl}-L-alaninamide]",2.16
22,"CN[C@@H](CC(C)C)C(=O)N[C@H]1CC[C@@H]2CN(c3ccc(OC(F)(F)F)cc3F)C[C@@H]21 [Example 774, N-{(3aR,4S,6aS)-2-[2-fluoro-4-(trifluoromethoxy)phenyl]octahydrocyclopenta[c]pyrrol-4-yl}-N^2-methyl-L-leucinamide]",1.15

# Same assay, conditions: read-out: IC50 (μM) or percent inhibition (* indicates 3 minute incubation, otherwise 60 minute); IC50; 60 minute pre-incubation with compound; IMR32 cells, 80 mM KCl depolarization
row,Compound,IC50 [µM]
1,"CCC[C@H](NC)C(=O)N[C@H]1CC[C@@H]2CN(S(=O)(=O)c3ccc(C(F)(F)F)cc3)C[C@@H]21 [Example 405, N^2-methyl-N^1-((3aR,4S,6aS)-2-{[4-(trifluoromethyl)phenyl]sulfonyl}octahydrocyclopenta[c]pyrrol-4-yl)-L-norvalinamide]",3.83
2,"O=S(=O)(c1cccc(C(F)(F)F)c1)N(C1CC1)[C@H]1CC[C@H]2CN(Cc3ccccc3)C[C@H]21 (relative stereo) [Example 199, N-[(3aS*,4S*,6aR*)-2-benzyloctahydrocyclopenta[c]pyrrol-4-yl]-N-cyclopropyl-3-(trifluoromethyl)benzenesulfonamide]",2.21
3,"CC(C)(C)C(C(=O)N[C@@H]1CC[C@H]2CN(Cc3ccccc3)C[C@H]21)c1ccccc1 (stereo partly drawn) [Example 30, N-[(3aS,4R,6aR)-2-benzyloctahydrocyclopenta[c]pyrrol-4-yl]-3,3-dimethyl-2-phenylbutanamide]",1.81
4,"CC(C)C[C@@H](N)C(=O)N[C@@H]1CC[C@H]2CN(Cc3cccc(C(F)(F)F)c3)C[C@H]21 (relative stereo) [Example 162, N^1-{(3aS*,4R*,6aR*)-2-[3-(trifluoromethyl)benzyl]octahydrocyclopenta[c]pyrrol-4-yl}-D-leucinamide]",3.94
5,"O=C(N[C@H]1CC[C@H]2CN(Cc3ccccc3)C[C@H]21)C(C1CCCCC1)C1CCCCC1 [Example 15, N-[(3aS,4S,6aR)-2-benzyloctahydrocyclopenta[c]pyrrol-4-yl]-2,2-dicyclohexylacetamide]",16.5
6,"O=C(CCC(c1ccc(F)cc1)c1ccc(F)cc1)N[C@@H]1CC[C@H]2CN(Cc3cccc(C(F)(F)F)c3)C[C@H]21 (relative stereo) [Example 144, 4,4-bis(4-fluorophenyl)-N-{(3aS*,4R*,6aR*)-2-[3-(trifluoromethyl)benzyl]octahydrocyclopenta[c]pyrrol-4-yl}butanamide]",1.04
7,"N^1-[(3aR,4S,6aS)-2-(4-fluorobenzyl)octahydrocyclopenta[c]pyrrol-4-yl]-N^2-methyl-L-norvalinamide [Example 378]",> 30
8,"CN[C@@H](CC(C)C)C(=O)N[C@@H]1CC[C@H]2CN(S(=O)(=O)c3ccc(C(F)(F)F)cc3)C[C@H]21 [Example 183, N^2-methyl-N^1-((3aS,4R,6aR)-2-{[4-(trifluoromethyl)phenyl]sulfonyl}octahydrocyclopenta[c]pyrrol-4-yl)-L-leucinamide]",1.41
9,"CC(C)C(C(=O)N[C@H]1CC[C@@H]2CN(Cc3cccc(F)c3)C[C@@H]21)c1ccccc1 (stereo partly drawn) [Example 87, N-[(3aR,4S,6aS)-2-(3-fluorobenzyl)octahydrocyclopenta[c]pyrrol-4-yl]-3-methyl-2-phenylbutanamide]",3.14
10,"CC(C)C(C(=O)N[C@H]1CC[C@@H]2CN(Cc3ccccc3)C[C@@H]21)c1ccccc1 (stereo partly drawn) [Example 35, N-[(3aR,4S,6aS)-2-benzyloctahydrocyclopenta[c]pyrrol-4-yl]-3-methyl-2-phenylbutanamide]",3.26
